Test results taken from patent US7718674B2, “Methods of relieving neuropathic pain with the S-isomer of 2-{2[N-(2-indanyl)-N-phenylamino]ethyl}piperidine” (Bridge Pharma, Inc., priority 2004, dated 2010).
“Also recorded” adds a separate entry of the source.

Legend:
[1] = system: skin on the back of male or female guinea pigs; conditions: from U.S. Pat. No. 6,413,987; cited from earlier work
[2] = from U.S. Pat. No. 6,413,987; cited from earlier work
[3] = system: skin on the back of male or female guinea pigs; test: Dermal anesthetic activity, pin-prick method after dermal application; type: in vivo, guinea pig; conditions: for anesthetic score (dermal anesthetic effect, FIG. 1): after 30 min application, score = average number of six probings not producing a skin twitch, 10% solution of base in DMSO/water
Protocol: Approximately 18-24 hours before each experiment, the skin on the back of male or female guinea pigs was shaved and depilated with a commercially available hair remover. The anesthetic action of each agent following dermal application was determined using a “pin-prick” method as described by Aberg (Acta Pharmacol Toxicol, 1972, 31: 273-286). Before and at various intervals after treatment, the area of the skin was tested for the presence or absence of a skin twitch in response to six standardized dermal probings with a pointed metal “algesimeter” at a predetermined maximum load of 10 grams. The average number of probings not producing a skin twitch response was designated as the “anesthetic score”. In this test system no response to six stimuli represents a “maximal anesthetic activity”. In the present calculations, the dermal anesthetic activity was calculated from the time of removal of the test article formulation from the skin until skin twitch responses to all but one pinprick were identified. In experiments on the dermal anesthetic activity, a single area of skin 1 inch square was marked off on the middle of the back of each animal. This area was covered by a 1 inch square, 16 layer thick gauze pad onto which was deposited 0.45 ml of a 10% solution of the test agent dissolved in a mixture of water and DMSO. The gauze pad was covered with a 1.5 inch square sheet of Saran Wrap™ which was attached to the surrounding skin with tape. The entire area was then covered by wrapping an elastic bandage around the trunk of the animal. After a predetermined duration of treatment, the coverings were removed and the skin assessed for the presence of anesthesia as described above. Dermal anesthesia tests were performed at ten-minute intervals to measure onset time and duration of dermal anesthetic activity; comparisons were made with reference compounds and vehicle. All test compounds were in the base form and dissolved in DMSO/water when tested for dermal anesthesia.

Dermal / tissue toxicity = conditions: in vivo
Analgesic activity = test: Analgesic activity; set-up: species or system rats; conditions: rat, in vivo
Protocol: Peripheral mononeuropathy is induced in rats by loose ligation of the sciatic nerve in anesthetized rats. Fourteen days later, the nociceptive threshold is evaluated after animal dosing with drug or vehicle, using graded paw pressure testing to assess hyperalgesia.
Diabetes is induced in rats by intraperitoneal injection of streptozotocin. Three weeks later, the nociceptive threshold is measured after animal dosing using the paw pressure to assess hyperalgesia.

| Structure (SMILES) | local / dermal anesthetic activity [1] | tissue toxicity [2] | anesthetic score (dermal anesthetic effect, FIG. 1) [3] | onset of dermal anesthetic activity ([3]; comparison of the enantiomers of LAC-34) | duration of action (duration of anesthesia) ([3]; comparison with racemate and other enantiomer, same concentration) | dermal toxicity (Dermal / tissue toxicity) | analgesic activity (Analgesic activity) |
| --- | --- | --- | --- | --- | --- | --- | --- |
| c1ccc(N(CCC2CCCCN2)C2Cc3ccccc3C2)cc1 (racemic) [RS-LAC-34, 2-{2-[N-(2-indanyl)-N-phenylamino]ethyl}piperidine] | active local anesthetic compound | little, if any, tissue toxicity | – | – | – | – | – |
| c1ccc(N(CC[C@H]2CCCCN2)C2Cc3ccccc3C2)cc1 [R-LAC-34] | – | – | 3.5 | significantly shorter; also recorded: shorter onset of action | shorter duration of action | – | – |
| c1ccc(N(CC[C@@H]2CCCCN2)C2Cc3ccccc3C2)cc1 [S-LAC-34, S-2-{2-[N-(2-indanyl)-N-phenylamino]ethyl}piperidine] | – | – | 2.6 | – | – | low dermal toxicity | expresses analgesic activity |
